Five cell lines from the supplement of paper PMC10307832 can be followed below.

What all share (assay): relative viability (nuclei count vs DMSO), 5 days (fraction); higher = more cells survive
Compound in the assay “Palbociclib + Bortezomib”: CC(=O)c1c(C)c2cnc(Nc3ccc(N4CCNCC4)cn3)nc2n(C2CCCC2)c1=O [Palbociclib] + CC(C)C[C@H](NC(=O)[C@H](Cc1ccccc1)NC(=O)c1cnccn1)B(O)O [Bortezomib] (partner 0.002 µM)
An outline of the steps:
(§1)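 For relative viability, nuclei counts in treated wells were divided by those in vehicle wells. Lung cancer cell lines had been pin-tool dosed in 1536-well plates the day after seeding and cultured for 5 days, then fixed and stained in one step (final 0.05% Triton X-100, 1% formaldehyde, 1 ug/ml Hoechst) and imaged at 4×. Doses were one drug alone or a fixed anchor-drug dose plus five library-drug doses (not always all listed) in √10 steps, and values are duplicate-plate medians.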

Compound in the assay “Palbociclib + Pictilisib”: CC(=O)c1c(C)c2cnc(Nc3ccc(N4CCNCC4)cn3)nc2n(C2CCCC2)c1=O [Palbociclib] + CS(=O)(=O)N1CCN(Cc2cc3nc(-c4cccc5[nH]ncc45)nc(N4CCOCC4)c3s2)CC1 [Pictilisib] (partner 1 µM)
An outline of the steps:
as §1

Compound in the assay “Palbociclib + Crizotinib”: CC(=O)c1c(C)c2cnc(Nc3ccc(N4CCNCC4)cn3)nc2n(C2CCCC2)c1=O [Palbociclib] + C[C@@H](Oc1cc(-c2cnn(C3CCNCC3)c2)cnc1N)c1c(Cl)ccc(F)c1Cl [Crizotinib] (partner 1 µM)
The procedure, abridged:
as §1

Compound in the assay “Palbociclib + Alpelisib”: CC(=O)c1c(C)c2cnc(Nc3ccc(N4CCNCC4)cn3)nc2n(C2CCCC2)c1=O [Palbociclib] + Cc1nc(NC(=O)N2CCC[C@H]2C(N)=O)sc1-c1ccnc(C(C)(C)C(F)(F)F)c1 [Alpelisib] (partner 2 µM)
An outline of the steps:
as §1

With PC-14, the relative viability turned out to be 1.02 with Palbociclib + Bortezomib (first compound 0.01 µM); 0.863 with Palbociclib + Bortezomib (first compound 0.03162 µM); 0.751 in the assay with Palbociclib + Bortezomib (first compound 0.1 µM); 0.655 in the assay with Palbociclib + Bortezomib (first compound 0.3162 µM); 0.57 in the assay with Palbociclib + Bortezomib (first compound 1 µM); 0.764 in the assay with Palbociclib + Pictilisib (first compound 0.01 µM). The relative viability with Palbociclib + Pictilisib (first compound 0.03162 µM) is 0.653; with Palbociclib + Pictilisib (first compound 0.1 µM), 0.579; with Palbociclib + Pictilisib (first compound 0.3162 µM), 0.537; with Palbociclib + Pictilisib (first compound 1 µM), 0.254; in the assay with Palbociclib + Crizotinib (first compound 0.01 µM), 1.01; with Palbociclib + Crizotinib (first compound 0.03162 µM), 0.84. For the same cell line, the relative viability in the assay with Palbociclib + Crizotinib (first compound 0.1 µM) amounted to 0.799; with Palbociclib + Crizotinib (first compound 0.3162 µM), 0.739; in the assay with Palbociclib + Crizotinib (first compound 1 µM), 0.594; in the assay with Palbociclib + Alpelisib (first compound 0.01 µM) it was 1.02; with Palbociclib + Alpelisib (first compound 0.03162 µM), 0.936; with Palbociclib + Alpelisib (first compound 0.1 µM) it was 0.782. The relative viability came to 0.762 with Palbociclib + Alpelisib (first compound 0.3162 µM) and 0.671 in the assay with Palbociclib + Alpelisib (first compound 1 µM).

For RERF-LC-KJ, the relative viability with Palbociclib + Bortezomib (first compound 0.01 µM) worked out at 1.17; with Palbociclib + Bortezomib (first compound 0.03162 µM), 1.12; with Palbociclib + Bortezomib (first compound 0.1 µM), 1.11; in the assay with Palbociclib + Bortezomib (first compound 0.3162 µM), 1.04; with Palbociclib + Bortezomib (first compound 1 µM) it was 1.15; in the assay with Palbociclib + Pictilisib (first compound 0.01 µM), 0.53. Moreover, the relative viability with Palbociclib + Pictilisib (first compound 0.03162 µM) came to 0.459; with Palbociclib + Pictilisib (first compound 0.1 µM), 0.464; with Palbociclib + Pictilisib (first compound 0.3162 µM), 0.484; with Palbociclib + Pictilisib (first compound 1 µM), 0.629; in the assay with Palbociclib + Crizotinib (first compound 0.01 µM), 0.909; with Palbociclib + Crizotinib (first compound 0.03162 µM) it was 0.82. The relative viability in the assay with Palbociclib + Crizotinib (first compound 0.1 µM) turned out to be 0.82; in the assay with Palbociclib + Crizotinib (first compound 0.3162 µM) it was 0.88; with Palbociclib + Crizotinib (first compound 1 µM) it was 0.87; in the assay with Palbociclib + Alpelisib (first compound 0.01 µM) it was 0.893; with Palbociclib + Alpelisib (first compound 0.03162 µM) it was 0.866; in the assay with Palbociclib + Alpelisib (first compound 0.1 µM), 0.827. The relative viability came to 0.798 with Palbociclib + Alpelisib (first compound 0.3162 µM) and 0.867 with Palbociclib + Alpelisib (first compound 1 µM).

For the cell line SK-LU-1, the relative viability with Palbociclib + Bortezomib (first compound 0.01 µM) was 1.47; with Palbociclib + Bortezomib (first compound 0.1 µM), 0.92; in the assay with Palbociclib + Bortezomib (first compound 0.3162 µM), 0.912; in the assay with Palbociclib + Bortezomib (first compound 1 µM), 0.58; in the assay with Palbociclib + Pictilisib (first compound 0.01 µM) it was 0.559; with Palbociclib + Pictilisib (first compound 0.03162 µM) it was 0.474. The relative viability amounted to 0.445 in the assay with Palbociclib + Pictilisib (first compound 0.1 µM); 0.383 in the assay with Palbociclib + Pictilisib (first compound 0.3162 µM); 0.286 with Palbociclib + Pictilisib (first compound 1 µM); 0.908 with Palbociclib + Crizotinib (first compound 0.01 µM); 0.738 with Palbociclib + Crizotinib (first compound 0.03162 µM); 0.624 in the assay with Palbociclib + Crizotinib (first compound 0.1 µM). Moreover, the relative viability with Palbociclib + Crizotinib (first compound 0.3162 µM) was 0.67; with Palbociclib + Crizotinib (first compound 1 µM), 0.471; with Palbociclib + Alpelisib (first compound 0.01 µM), 1.02; with Palbociclib + Alpelisib (first compound 0.03162 µM) it was 0.921; with Palbociclib + Alpelisib (first compound 0.1 µM) it was 0.581; with Palbociclib + Alpelisib (first compound 0.3162 µM) it was 0.599. Also, in the assay with Palbociclib + Alpelisib (first compound 1 µM), the relative viability worked out at 0.464.

As for SW 1573, the relative viability with Palbociclib + Bortezomib (first compound 0.01 µM) was determined as 1.15; in the assay with Palbociclib + Bortezomib (first compound 0.03162 µM), 0.928; with Palbociclib + Bortezomib (first compound 0.1 µM), 0.985; with Palbociclib + Bortezomib (first compound 0.3162 µM), 0.842; in the assay with Palbociclib + Bortezomib (first compound 1 µM) it was 0.506; with Palbociclib + Pictilisib (first compound 0.01 µM), 0.447. For the same cell line, the relative viability was determined as 0.389 in the assay with Palbociclib + Pictilisib (first compound 0.03162 µM); 0.322 with Palbociclib + Pictilisib (first compound 0.1 µM); 0.327 with Palbociclib + Pictilisib (first compound 0.3162 µM); 0.289 in the assay with Palbociclib + Pictilisib (first compound 1 µM); 0.776 with Palbociclib + Crizotinib (first compound 0.01 µM); 0.672 with Palbociclib + Crizotinib (first compound 0.03162 µM). Moreover, the relative viability with Palbociclib + Crizotinib (first compound 0.1 µM) was 0.685; with Palbociclib + Crizotinib (first compound 0.3162 µM) it was 0.758; with Palbociclib + Crizotinib (first compound 1 µM), 0.615; with Palbociclib + Alpelisib (first compound 0.01 µM) it was 0.676; with Palbociclib + Alpelisib (first compound 0.03162 µM) it was 0.744; with Palbociclib + Alpelisib (first compound 0.1 µM) it was 0.571. Moreover, the results for the relative viability with Palbociclib + Alpelisib (first compound 0.3162 µM) and in the assay with Palbociclib + Alpelisib (first compound 1 µM) were 0.57 and 0.49, respectively.

As for UMC-11, the relative viability turned out to be 0.934 with Palbociclib + Bortezomib (first compound 0.01 µM); 0.625 in the assay with Palbociclib + Bortezomib (first compound 0.03162 µM); 0.466 with Palbociclib + Bortezomib (first compound 0.1 µM); 0.292 in the assay with Palbociclib + Bortezomib (first compound 0.3162 µM); 0.238 with Palbociclib + Bortezomib (first compound 1 µM); 0.873 in the assay with Palbociclib + Pictilisib (first compound 0.01 µM). Further, the relative viability with Palbociclib + Pictilisib (first compound 0.03162 µM) is 0.671; in the assay with Palbociclib + Pictilisib (first compound 0.1 µM), 0.429; with Palbociclib + Pictilisib (first compound 0.3162 µM), 0.36; with Palbociclib + Pictilisib (first compound 1 µM), 0.219; with Palbociclib + Crizotinib (first compound 0.01 µM) it was 0.603; with Palbociclib + Crizotinib (first compound 0.03162 µM), 0.519. Besides, the relative viability in the assay with Palbociclib + Crizotinib (first compound 0.1 µM) is 0.428; with Palbociclib + Crizotinib (first compound 0.3162 µM), 0.346; with Palbociclib + Crizotinib (first compound 1 µM), 0.177; with Palbociclib + Alpelisib (first compound 0.01 µM) it was 0.996; with Palbociclib + Alpelisib (first compound 0.03162 µM), 0.931; in the assay with Palbociclib + Alpelisib (first compound 0.1 µM), 0.604. For the same cell line, the relative viability with Palbociclib + Alpelisib (first compound 0.3162 µM) was determined as 0.459; with Palbociclib + Alpelisib (first compound 1 µM), 0.254.
